“Also recorded” adds a separate entry of the source.
Columns and labels:
[1] = test system: heart fibrosis in 5/6 nephrectomized-catheterized rats; assay: Heart fibrosis in 5/6 nephrectomized-catheterized (5/6-Nx) rats; format: in vivo, rat (male Sprague-Dawley); details: for hydroxyproline (collagen) content in heart: FIG. 31
Source text: Implantation of a femoral catheter increases the presence of heart fibrosis in our 5/6 nephrectomized (5/6-Nx) model and it was used to assess the effect of Compound I on heart fibrosis. In summary, male 6-week old Sprague-Dawley rats were subjected to 5/6-Nx or sham operations. Briefly, two-thirds of the left kidney was removed on day 0 followed by the right total nephrectomy on day 7. A catheter was implanted via the femoral vein on day 7. Sham operated rats underwent exposition of the kidneys and removal of the perirenal fat and were used as controls. Animals that underwent the sham operation were treated with vehicle (water) and were used as controls. On day 21, rats were randomized based on their glomerular filtration rate (GFR) results. 5/6-Nx animals were treated with three times a week intravenous administration of Compound I (10 mg/kg), or with daily oral administration with Compound I (200 mg/kg). Heart fibrosis was determined by the measurement of hydroxyproline (collagen content) and by histological evaluation (HPE and Masson's trichrome staining). As mentioned, implantation of catheter for intravenous administration of compounds in catheterized 5/6 nephrectomized animals is inducing heart fibrosis compare to oral treatment (no catheter). Oral treatment is identified herein with the expression “po” that means “per os”; intravenous administration is identified with the expression “iv” for “intravenous”. As exemplified in FIG. 27, 5/6-Nx rats have weak heart lesions. However, implantation of a catheter induced a significant increase (4 times) of heart lesions (fibrosis, necrosis and inflammation).

[2] = test system: collagen 1 mRNA in HK-2 cells (epithelial cells); assay: Inhibition of collagen mRNA in TGF-β-treated HK-2 epithelial cells; format: cell-based; details: Homo sapiens, HK-2, compound 0.5 mM
Protocol: (§1) CTGF, collagen 1 and α-SMA are fibrotic markers produced by activated fibroblasts and by epithelial cells that undergo to epithelial-mesenchymal transition (EMT).
(§2) Table 2: Percentage of inhibition of collagen in epithelial cells (HK2 cells) and fibroblasts (NHDF) and percentage of inhibition of α-SMA in fibroblasts (NRK-49F and NHDF) has been determined for several compounds according the invention. In all cases, the mRNA of collagen and α-SMA has been measured, and the inhibition was evaluated in presence of a respective concentration of the tested compound. The compounds have been tested at different concentrations [mM]. All compounds reduce the expression of collagen and α-SMA in HK-2, NHDF and NRK-49F cells.

[3] = test system: CCl4-induced liver fibrosis mouse model; assay: CCl4-induced liver fibrosis mouse model; format: in vivo, mouse (male C57BL/6)
Source text: Hepatic fibrosis is an outcome of many chronic liver diseases, including hepatitis B virus, hepatitis C virus, alcoholic liver disease, non-alcoholic steatohepatitis and diverse chronic intoxication. It was thus desired to evaluate the effect of Compound I on murine CCl4-induced liver fibrosis. Intoxication with CCl4 results in hepatocyte damage, necrosis, inflammation, and fibrosis, which spreads to link the vascular structures that feed into and drain the hepatic sinusoid (the portal tract and central vein radical, respectively), and over 8-30 weeks results in the development of fibrosis to hepatocellular carcinoma. Therefore, evaluation of candidate antifibrotic drugs such as Compound I can be undertaken by treatment of the mice at appropriate time points and histologic, biochemical and cellular readouts may be used to monitor candidate drug efficacy in this model.
CCl4 (10% in corn oil, 2 ml/kg) was intraperitoneally injected twice a week for 16 weeks in male C57BL/6. Compound I (200 mg/kg) was orally administered every day from day 1 to day 113. Mice were euthanasized and histology and liver fibrotic markers were analyzed.
To determine if Compound I has an effect on liver fibrosis, hydroxyproline level was used to measure the collagen content in the tissue, which is indicative of liver fibrosis.
The reduction of collagen level in liver tissue was also observed in histological micrographs using the Masson's Trichrome staining.
The Masson's trichrome stain the cytoplasm, keratin, muscle fibers and intracellular fibers in red colour; nuclei in black colour and collagen (fibrous tissue) in blue color.
Another experiment has been performed with Compound 1 and Compound V where CCL4 (10% in olive oil, 2 ml/kg) was intraperitoneally injected twice a week for 8 weeks in male C57BL/6. Compound 1 and compound V were orally administered (100 and 200 mg/kg) every day from day 1 to day 58. Mice were euthanasized and collagen content (marker of fibrosis) in the liver was quantified by histomorphometry using Masson's trichrome staining.

[4] = test system: normal human dermal fibroblasts (NHDF); assay: Scratch assay (migration and invasion) of EGF-stimulated NHDF; format: cell-based; details: mitomycin-treated NHDF, compound 0.5 mM, FIG. 26
Protocol: The next experiments (scratch assay, invasion/migration) were designed to determine the effect of Compound I on EGF-stimulated normal human dermal fibroblasts (NHDF). In summary, mitomycin-treated NHDF were stimulated with EGF and incubated in the presence or absence (control) of Compound I (0.5 mM). EGF stimulated fibroblast invasion into the scratch which is inhibited by Compound I (FIG. 26).

[5] = test system: normal human dermal fibroblasts (NHDF); assay: TGF-β-induced and basal CTGF, collagen 1 and α-SMA transcript expression in NHDF (quantitative real-time PCR); format: cell-based
Protocol: The effect of Compound of the invention on skin fibrosis was studied using normal human dermal fibroblasts (NHDF).
In vitro analysis was undertaken to determine the effect of Compound I on TGF-β-induced CTGF, collagen 1 and α-SMA (markers of fibrosis) on normal human dermal fibroblasts (NHDF). Expression of the profibrotic (CTGF) and fibrotic markers (collagen 1 and α-SMA) were determined by quantitative real-time PCR.
Myofibroblasts are terminally differentiated cells derived from fibroblasts, epithelial and mesenchymal stem/stromal (fibrocytes) cells that play an important role in tissue fibrosis via increased matrix synthesis such as collagen. α-SMA is a well-known marker of myofibroblast.

α-SMA mRNA in NHDF cells = assay: Inhibition of α-SMA mRNA in TGF-β-activated NHDF fibroblasts; format: cell-based; details: Homo sapiens, compound 0.5 mM
Protocol: as §1, §2

CCCCCc1cccc(CC(=O)[O-])c1.[Na+] [Compound I, Sodium Salt of 3-pentylphenylacetic acid]
inflammation level in heart ([1]; intravenous 10 mg/kg three times a week, FIG. 29): significant reduction of inflammation | necrosis level in heart ([1]; intravenous 10 mg/kg three times a week, FIG. 30): significant reduction of necrosis | hydroxyproline (collagen) content in heart ([1]; intravenous 10 mg/kg three times a week): significant reduction | total heart lesions (histological evaluation) ([1]; intravenous 10 mg/kg three times a week, p<0.05, FIG. 28): reduces significantly | heart fibrosis (blue-colored collagen deposition, Masson's trichrome photomicrographs) ([1]; intravenous, FIG. 34): reduces fibrosis | hydroxyproline (collagen) content in heart ([1]; oral 200 mg/kg daily): significant reduction | heart fibrosis (blue-colored collagen deposition, Masson's trichrome photomicrographs) ([1]; oral, FIGS. 32 and 33): reduces fibrosis | inhibition at 500 µM [2]: 86% | collagen score in liver (Masson's Trichrome staining) ([3]; CCl4 16 weeks, oral 200 mg/kg daily, FIG. 20): significant reduction | collagen deposition and bridging formation in liver (photomicrographs) ([3]; CCl4 16 weeks, oral 200 mg/kg daily, FIG. 21): significant reduction of collagen deposition and bridging formation | collagen content in liver (histomorphometry, Masson's trichrome) ([3]; CCl4 twice a week for 8 weeks, oral 100 and 200 mg/kg every day, day 1 to day 58, FIG. 22): significant reduction | hydroxyproline level in liver ([3]; CCl4 twice a week for 16 weeks, oral 200 mg/kg every day, day 1 to day 113, FIG. 19): significant reduction | EGF-stimulated fibroblast migration and invasion into the scratch [4]: reduction of the migration and invasion; also recorded: inhibited | TGF-β-induced CTGF transcript expression ([5]; TGF-β 5 ng/ml, compound 500 μM, FIG. 23): inhibited | TGF-β-induced collagen 1 transcript expression ([5]; TGF-β 5 ng/ml, compound 500 μM, FIG. 24): inhibited | TGF-β-induced α-SMA transcript expression ([5]; TGF-β 5 ng/ml, compound 500 μM, FIG. 25): inhibited | inhibition of α-SMA in TGF-β induced fibroblasts ([5]; TGF-β induced): 90% | basal expression of CTGF ([5]; compound alone (0.5 mM), no TGF-β, FIG. 23): decreased basal expression | basal expression of collagen 1 ([5]; compound alone (0.5 mM), no TGF-β, FIG. 24): decreased basal expression | basal expression of α-SMA ([5]; compound alone (0.5 mM), no TGF-β, FIG. 25): decreased basal expression | inhibition at 500 µM (α-SMA mRNA in NHDF cells): 99%
